In patent publication US20120149100A1, “CARDIOMYOCYTE CELL POPULATIONS” (Mount Sinai School of Medicine, priority 2005, published 2012):

Assays:
Ainv-Notch4 ES cells = test: Flow cytometric analysis for HA-Notch4 expression after induction; format: cell-based; conditions: one day following Dox 0.5 μg/ml induction
Description: Dissociated cells were incubated with biotinylated mAbs (against Flk-1, VE-cad, or CD41) in PBS containing 10% FCS on ice for 30 min. The cells were then washed once and incubated with streptavidin-PE-Cy5 (BD Pharmingen) for another 30 minutes on ice. Following an additional two washes, the cells were analyzed on a FACSCalibur flow cytometer (BectonDicldnson) or sorted on a Moflo cell sorter (Cytomation). For Troponin T or HA staining, cells were fixed in 4% paraformaldehyde (PFA) for 30 minutes and then incubated in a permeabilizing buffer consisting of PBS with 10% FCS and 0.1% saponin (Sigma) for 10 minutes. Following fixing and permeabilization, the cells were washed twice and incubated with an anti-Troponin T (unconjugated mouse antibody, Lab Vision) or anti-HA (conjugated with biotin, Covance) antibody for 30 minutes. After two washes, the cells were incubated with a secondary APC-conjugated goat anti-mouse antibody (for Troponin T antibody) or streptavidin-PE-Cy5 (for biotinylated HA antibody) for 30 minutes. Finally, the cells were washed twice with permeabilizing buffer and then twice with buffer without saponin. […] One day following Dox (0.5 μg/ml) induction, 90% of Ainv-Notch4 ES cells expressed Notch4 as determined by flow cytometric analysis for HA expression (FIG. 2A).

[1] = test system: Flk-1+ cells isolated from day 3.25 Ainv-Notch4 EBs; test: Cardiac assay of reaggregated Flk-1+ cells from Ainv-Notch4 EBs; format: cell-based
Description: (§1) Sorted cells were reaggregated for 24 hours in StemPro-34 serum-free medium (hwitrogen) containing 2 mM L-glutamine (GIBCO/BRL), transferrin (200 μg/ml), 0.5 mM ascorbic acid and 4.5×10^−4 M MTG at 3×10^5 cells per ml in ultra-low-attachment 24-well plates (Costar). Single aggregates or pools of aggregates were replated in gelatin-coated 96- or 24-well plates containing SternPro with 2 mM L-glutamine for cardiac culture. Following 2 to 4 days of culture the proportion of aggregates containing contracting cells was scored and the number of Troponin T-positive cells was evaluated by flow cytometric analyses. For the aggregated and cardiac cultures, doxycycline (Dox) was used at 0.5 μg/ml and γ-secretase inhibitor X at 5 μM (dissolved in DMSO). The same concentration of DMSO was added to the control cultures. Medium was changed everyday to provide fresh Dox and inhibitor.
To investigate the potential of Notch4 to initiate a cardiogenic program in this early stage of hemangioblast population, Flk-1^+ cells isolated from day 3.25 Ainv-Notch4 EBs were reaggregated for 24 hours in the presence or absence of Dox as described above. The resulting aggregates were then cultured in gelatin-coated microliter wells containing serum-free media (hereafter referred to as cardiac cultures). These conditions efficiently support cardiomyooyte development from cardiogenic mesoderm (Kouskoff et al. (2005) Proc. Natl. Acad. Sci. 102:13170-13175). Both single aggregates and pools of aggregates were cultured for 2-3 days. Following this maturation step, the cultures of single aggregates were scored for the presence of contracting cells indicative of cardiomyocyte differentiation. None of the aggregates generated in the absence of Dox (−Dox/−Dox) contained contracting cells (FIG. 3A). Rather, these aggregates underwent heniatopoietio differentiation as indicated by the development of hemoglobinized erythroid cells, an observation consistent with the hemangioblast potential of this population. […] (FIG. 3B, right panel). Few cTnT cells were atected among the adhesive cells generated from non-induced aggregates (FIG. 3B, left panel). Cultures of the pooled induced aggregates generated extensive areas of contracting cells. Contracting cells were not detected in the cultures of the non-induced aggregates. Flow cytometric analysis of the differentiated progeny from pooled inducedaggregates confirmed the dramatic cardiogenic effect of Notch4 as greater than 60% of the entire cell population expressed cTnT after 2 days in the cardiac cultures (+Dox/−Dox, FIG. 3C). Less than 1% of the cells generated from the non-induced population expressed cTnT (−Dox/−Dox, FIG. 3C). […]

[2] = test system: BL-CFC in day 3.25 Flk-1+ cells; test: Blast colony (BL-CFC) assay; format: cell-based
Description: The blast and hematopoietic colony assays were performed as described Kennedy et al., (2003) Metods Enzymol. 365:39-59. Dox was added at 0.5 μg/ml to induce Notch4 expression and y-secretase inhibitor X (L685,458, Calbiochem) at 5 μM to blook Notch signaling in the:blast colony culture. To generate mixed hemangioblastkardiac colonies, blast colony growth was initiated in standard blast colony cultures containing Dox for 24 hours. The developing colonies were then washed from with methycellulose with IMDM containing 10% FCS to remove Dox. The colonies were recultured in blast colony metycellulose supplemented with Erythropoietin (2 U/ml) and IL-3 (1% conditioned medium). Mixed colonies containing an inner cardiac core surrounded by outer hematopoietic cells were picked for analysis at day 7.
To determine if the BL-CFC is the target of the Notch4-induced fate change, day 3.25 Flk-1^+ cells were cultured in the BL-CFC assay in the presence or absence of Dox. In the absence of Dox, this population generated typical blast colonies that appeared as grape-like clusters of cells. When cultured in the presence of Dox, these cells formed compact colonies of tightly packed cells that were easy to distinguish from the blast colonies (FIG. 5A). The number of these compact colonies was similar to the number of blast cell colonies that developed in the non-induced cultures (FIG. 5B). […] None of these colonies expressed gata-1. As shown previously, blast colonies expressed the endothelial genes as well as gata-1. […] With extended time in the methylcellulose cultures, some of the compact colonies generated contracting cells. To quantify the proportion of colonies that generated contracting cells, individual colonies were picked at day 7 of culture and replated in microtiter wells in the cardiac cultures. Approximately 70% of the compact colonies generated contracting cells between 2 and 7 days of culture. The contracting cells expressed cTnT, confirming that they were cardiomyocytes (FIG. 5D).

[3] = test system: GFP-Bry+/Flk-1- fraction from GFP-Bry/Ainv-Notch4 ES cells; test: Cardiac assay of reaggregated GFP-Bry+/Flk-1- cells; format: cell-based
Description: as §1
Cardiac potential has been mapped to the Flk-1^− fraction of brachytury-expressing mesoderm (GFP-Bry^+/Flk-1^−) at early singes of EB development (Kouskoff et al., supra). To investigate the role of Notch4 during cardiac differentiation of this mesoderm, the GFP cDNA was targeted to the brachyury locus of Ainv cells to enable the overexpression of Notch4 in the GFP-Bry^+/Flk-1^− population. The GFP-Bry^+/Flk-1^− fraction was isolated from clay 3.25 EBs derived from the GFP-Bry/Ainv-Notch4 ES cells, reaggregated for 1 day and the resultant aggregates plated in cardiac cultures. γ-Secretase inhibitor or Dox was added to the cells either during the reaggregation step or to the cardiac cultures to further define the stage specific effects of Notch4. Three days following differentiation of the aggregates in the cardiac cultures, the proportion of cTnT-positive cells and the expression of cardiac genes were analyzed (FIG. 7). […] As expected, this population expressed the spectrum of cardiac genes. Induction of Notch4 during the reaggregation stage (+Dox/−Dox) enhanced cardiomyocyte development over that observed in the control cultures (FIG. 7C). […]

[4] = test system: Flk-1+ cells from Bry-GFP ES cells on OP9-DL1 cells; test: Culture of Flk-1+ cells on Dll-1 expressing OP9 stromal cells; format: cell-based; conditions: inhibitor 5 μM; 3 days of culture
Description: OP9-DL1 cells described by Schmitt et al. (2004) Nat. Immunol. 5:410-417 were cultured in a 24-well plate and irradiated before use. Day 3.25 EB-derived Flk-1^+ cells (3×10^4 per well) were seeded onto OP9 cells in the same medium used for the cardiac cultures. γ-Secretase inhibitor X (dissolved in DMSO) at 5 μM or a corresponding volume of DMSO was included in the cultures. Medium was changed everyday to supply fresh inhibitor. After 3 days of culture, the cells were harvested and subjected to flow oytometric analysis to determine the number of Troponin T-positive cells.
Following 3 days of culture, areas of contracting cells were detected on the OP9 stromal cells, with approximately 24% of the cells expressing cTnT (FIG. 6A).

[5] = test system: posterior primitive streak explants; test: E7.5 primitive streak explant cultures; format: cell-based, mouse; conditions: inhibitor 10 μM; 5 days of culture
Description: Female swiss webster mice (Taconic) were mated with male GFP-Bry^+/− mice described by Huber et al., (2004) Nature 432:625-630. Pregnant mice were sacrificed 7.5 days after mating and the embryos were isolated. Dissections were performed under a Leica MZFLIII fluorescence dissecting stereomicrosope to visualize the GFP expression in the primitive streak (PS). Using tungsten needles (Fine Science tools), the PS of GFP-Bry^+/− embryos were isolated and separated into posterior and anterior regions. Individual anterior and posterior PS pieces were plated in gelatin-coated 96-well dishes with medium for cardiac cultures. γ-Secretase inhibitor at 10 μM or a corresponding volume of DMSO was included in the cultures. Medium was changed everyday to provide fresh inhibitor. After 3-5 days, the explants were scored for the presence of contracting foci and harvested for gene expression analysis.
When isolated PPS are plated in the cardiac cultures contracting cardiomyocytes can be detected within 3 to 5 days. To investigate whether Notch signalling is required for the development of the cardiomyocyte lineage from embryo-derived tissues, PPSs were cultured in the presence or absence of γ-secretase inhibitor and then analyzed for the development of contracting cells and for the expression of cardiac genes. […]

[6] = inhibitor during the aggregation stage (+I/-I)
[7] = +Dox+inhibitor/-Dox, inhibitor 5 μM during the reaggregation step

Row | SMILES | Ainv-Notch4 ES cells expressing Notch4 (HA expression) (Ainv-Notch4 ES cells) [%] | cell population expressing cTnT ([1]; +Dox/-Dox, pooled aggregates, 2 days in cardiac cultures) | aggregates containing contracting cells ([1]; Flk-1+ cells from day 4 EBs, Dox 24 hours) [%] | mixed colonies that generated contracting cells ([2]; Dox exposure limited to 24 hours, replated into cardiac cultures) [%] | compact colonies that generated contracting cells ([2]; colonies formed in presence of Dox, picked at day 7, 2 to 7 days in cardiac cultures) | proportion of cTnT-expressing population compared to control ([3]; inhibitor added to the cardiac cultures (-I/+I)) | development of cTnT-positive contracting cells [3, 6] | expression levels of the cardiac genes [3, 6] | cardiomyocyte development (cTnT+ cells) [4] | expression of cardiac genes [1, 7] | generation of contracting cells [1, 7] | PS explants that generated contracting cells [5] | expression of cardiac genes in explants [5] | colony type (blast vs compact colonies) ([2]; inhibitor 5 μM together with Dox 0.5 μg/ml, 4 days)
1 | C[C@H]1c2cccc(O)c2C(=O)C2=C(O)[C@]3(O)C(=O)C(C(N)=O)=C(O)[C@@H](N(C)C)[C@@H]3[C@@H](O)[C@@H]21 [Dox, doxycycline] | 90 | greater than 60% | 25 | 45 | Approximately 70% |  |  |  |  |  |  |  |  | 
2 | CC(C)C[C@H](NC(=O)[C@H](Cc1ccccc1)C[C@@H](O)[C@H](Cc1ccccc1)NC(=O)OC(C)(C)C)C(=O)N[C@@H](Cc1ccccc1)C(N)=O [γ-secretase inhibitor] |  |  |  |  |  | modestly increased | suppressed | reduced | inhibited | inhibited | inhibited | Less than 10% | inhibited in some but not all of the explants | reversal back to blast colonies
